According to patent US11191840B2, “Compositions and methods relating to salts of specialized pro-resolving mediators” (Thetis Pharmaceuticals LLC, priority 2017, dated 2021):
Where a name gives a salt, the structure may show the parent alone. Read-outs that look alike come from different tables or passages of the source. Values belong to the compound of their own block, whether it stands above or below them.

Tests used:
[1] = system: two-cycle DSS colitis model; assay: Two-cycle DSS colitis model, concomitant RvE1-Mg-di-lysinate and 5-ASA; type: in vivo, mouse; conditions: once-daily, RvE1-Mg-Lys 1.5 ug/d, 5-ASA 625 ug/d, alone or combined; for Colon Length / Normalized Spleen Weight / Total Histopath Score: at sacrifice; for Disease Activity Index: terminal (Day 27)
Procedure: (§1) In the study described in Example 17, a sub-chronic model was used to induce colitis in 8-week old C57B16/J mice by two cycles of DSS separated by a 10-day recovery period. Once-daily RvE1-Mg-di-lysinate treatment (15 ug/day) was initiated on Day 20, after DSS-induced colitis was established, and continued for 7 days via oral gavage, with mice sacrificed at the end of Day 27. This sub-chronic, 2-cycle DSS protocol was used to induce inflammation with an immunological profile that better models human IBD than a single cycle of DSS. Oh S Y et al. Comparison of experimental mouse models of inflammatory bowel disease. Int J Mol Med. 2014; 33(2):333-40. This experimental system also provides a representative model for treating patients with active disease where the therapeutic objective is induction of remission. This is important in human IBD because most patients have recurring disease flares. In addition, this study compared RvE1-Mg-di-lysinate to 5-aminosalicylate (5-ASA), which is used as standard-of-care first-line therapy for induction and maintenance of remission in ulcerative colitis and also for certain phenotypes of Crohn's Disease.
(§2) Disease activity was assessed daily using the same Disease Activity Index (DAI) that was used in Example 16. Following sacrifice, colons were excised, flushed with ice-cold PBS, their lengths were measured. Subsequently, H&E-stained colon tissue sections from each animal were also scored using an established scoring system of histopathological disease activity. See Dieleman L A, Palmen M J, Akol H, et al. Chronic experimental colitis induced by dextran sulphate sodium (DSS) is characterized by Th1 and Th2 cytokines. Clin Exp Immunol. 1998; 114(3):385-91.
In this study, we again used the two-cycle DSS colitis model described above, but with once-daily concomitant therapy of RvE1-Mg-di-lysinate (1.5 ug/day) and 5-ASA (625 ug/day). This co-therapy model was used because many patients that would be candidates for RvE1-Mg-di-lysinate treatment will likely continue taking 5-ASA, as this is common clinical practice even when patient are not well controlled on 5-ASA monotherapy.

[2] = Chemical stability against degradation, HPLC, solid in open test tubes at room temperature; type: physicochemical; conditions: open test tube, room temperature 68-72 F, relative humidity 20-40%
Procedure: The stability of selected SPMs and their ionic derivatives based on Formulas I and IV was evaluated. The parent SPM and its solid ionic derivative were place in open test tubes and maintained at room temperature between 68-72 F and relative humidity between 20-40% for 6 or 8 weeks. […] Briefly, HPLC analysis was performed on a PFP column (Poroshell 120, PFP, 4.6×150 mm, […], Agilent), mounted on a Gilson HPLC system equipped with an ELS detector. The mobile phase consisted of a gradient between solution A, water, and solution B, acetonitrile, both containing 0.1% trifluoroacetic acid. The gradient program was 30-80% with respect to solution B. The flow rate was 0.5 mL/min. The appearance of new HPLC peaks as compared to the baseline HPLC tracing at the initial time point is indicative of decomposition products and the lack of stability. The absence of such new HPLC peaks the subsequent time points is indicative of stability.

DSS-induced colitis = assay: Sub-chronic two-cycle DSS colitis model, treatment from Day 20; type: in vivo, mouse; conditions: for Colon Length / Disease Activity Index / Normalized Spleen Weight: Table 7, two cycles of DSS, once-daily oral gavage Day 20-27, 15 ug/day; for Reduction in DAI relative to Disease Control: 15 ug/day oral from Day 20
Procedure: as §1, §2

[3] = system: dextran sulfate sodium (DSS) mouse model of colitis; assay: Dextran sulfate sodium (DSS) mouse model of colitis, acute, 7 days DSS; type: in vivo; conditions: RvE1-Mg-di-lysinate 15 ug/day or equimolar RvE1; for Colon Length / Normalized Spleen Weight: at sacrifice after 7 days DSS, once-daily oral gavage; for Disease Activity Index: study day 7, 2% DSS in drinking water 7 days, once-daily oral gavage from day 0
Procedure: A representative compound of Formula IV, RvE1-Mg-di-lysinate, was tested for efficacy in the dextran sulfate sodium (DSS) mouse model of colitis. In this model system, DSS exposure disrupts intestinal barrier function, stimulating local inflammation and inducing a colitis phenotype that mimics the clinical and histopathological features of IBD. See e.g., Laroui H et al. Dextran sodium sulfate (DSS) induces colitis in mice by forming nano-lipocomplexes with medium-chain-length fatty acids in the colon. PLoS ONE. 2012; 7 (3):e32084.
In the present study, 8-week old male C57Bl/6J mice were randomized by weight to three experimental groups and administered 2% DSS (w/v) in drinking water for 7 days. Beginning on study day 0, animals were administered either RvE-Mg-di-lysinate (RvE-Mg-Lys), an equimolar dose of RvE1, or vehicle via once-daily oral gavage. Disease activity was assessed daily using an established Disease Activity Index (DAI). See e.g., Morin C, Blier P U, Fortin S. MAG-EPA reduces severity of DSS-induced colitis in rats. Am J Physiol Gastrointest Liver Physiol. 2016; 310 (10):G808-21. All animals were sacrificed after 7 days of DSS exposure and colons and spleens were harvested. Gross morphological markers of disease activity, including colon length and normalized spleen weight (mg per g body weight) were assessed.
The model system described in Example 16 represents an acute model of human IBD wherein once daily RvE1-Mg-di-lysinate treatment at a dose of 15 ug/day was used in a prophylactic mode to mitigate the onset of intestinal and systemic inflammation induced by administration of DSS. This is relevant to patients in need of maintenance therapy to prevent the recurrence of active disease.

[4] = system: two-cycle DSS colitis model; assay: Two-cycle DSS colitis model, intracolonic versus oral administration; type: in vivo, mouse; conditions: 15 ug/d, Day 20-27
Text: To further test the biological effects on disease activity of luminal absorption of RvE1 administered orally in the form of RvE1-Mg-di-lysinate, we compared direct intracolonic administration (similar to an enema) with oral administration. Whereas we had previously established that oral administration of RvE1-Mg-di-lysinate results in systemic and local colonic exposure to RvE1, intracolonic administration results in predominantly local exposure. We again used the two-cycle DSS colitis model described above, with treatment initiated on Day 20 and continued for 7 days, with mice sacrificed at the end of Day 27. To facilitate intracolonic drug delivery, mice were anesthetized via exposure to 2-4% isoflurane gas. Intracolonic administration of RvE1-Mg-di-lysinate or vehicle was performed, with all animals inverted for 5 minutes following dose administration. Intracolonic administration of RvE1-Mg-di-lysinate was associated with a significant reduction in DAI (P<0.01), colon length (P<0.05), spleen weight (P<0.05) and histopathological disease activity (P<0.05).

[5] = Single oral dose pharmacokinetics: RvE1 exposure in blood plasma, small intestine tissue and colon tissue; type: in vivo, mouse; conditions: for Timing of RvE1 Cmax: oral administration; for Cmax / Tmax / AUC(0-t): male, C57BL6/J, mouse, single oral dose 10 mg/kg RvE1-Mg-di-lysinate; for AUC(0-t): read-out: AUC0-8 of RvE1
Procedure: To establish the oral pharmacokinetics (PK) of RvE1-Mg-di-lysinate, a study was conducted to investigate RvE1 exposure in blood plasma, small intestine tissue, and colon tissue following a single oral dose of RvE1-Mg-di-lysinate (10 mg/kg) in 8-week old male C57BL6/J mice at various time points up to 8 hours post-dose. RvE1 levels were quantified in all tissue samples by HPLC-MS/MS. Pharmacokinetic curves for all tissue compartments are shown in FIG. 5 and a summary of pharmacokinetic metrics is shown in Table 9.

[6] = Pharmacokinetic analysis of blood and colon tissue after intracolonic administration; type: in vivo; conditions: mouse, 15 ug/day; for Tmax: read-out: RvE1 Tmax (converted)
Text: Pharmacokinetic analysis of blood and colon tissue samples were collected in the course of the intracolonic efficacy study and these confirmed that intracolonic administration of RvE1-Mg-di-lysinate is associated with predominantly local RvE1 exposure and minimal uptake into circulation.

[7] = small intestine tissue, Small Intestine
[8] = at sacrifice Day 27, 15 ug/day oral, P<0.05

SMILES: Nc1ccc(O)c(C(=O)O)c1 [Compound 5-ASA, 5-aminosalicylate, reference compound]
Colon Length [1]: 78.7 ± 6.7 mm | Normalized Spleen Weight [1]: 4.1 ± 1.3 mg/g BW | Total Histopath Score [1]: 16 ± 3.8 | Disease Activity Index [1]: 3.3 ± 0.8

SMILES: CC[C@@H](O)/C=C/C=C\C[C@@H](O)/C=C/C=C/C=C\[C@@H](O)CCCC(=O)O [RvE1 Ca di-lysinate, bis(RvE1) calcium L-lysinate salt]
Degradation products by HPLC (chemical stability) ([2]; 6 weeks): No additional peaks corresponding to degradation products were observed

Now from value to compound, other results behind:

Degradation products by HPLC (chemical stability) ([2]; 8 weeks): without degradation products
SMILES: CC[C@@H](O)/C=C/C=C\C[C@@H](O)/C=C/C=C/C=C\[C@@H](O)CCCC(=O)O [RvE1 lys lys, RvE1 (L,L)-lysyllysine salt]

Degradation products by HPLC (chemical stability) ([2]; 8 weeks): extensively degraded
SMILES: CC[C@@H](O)/C=C/C=C\C[C@@H](O)/C=C/C=C/C=C\[C@@H](O)CCCC(=O)O [RvE1, (5S,6Z,8E,10E,12R,14Z,16E,18R)-5,12,18-trihydroxyicosa-6,8,10,14,16-pentaenoic acid, reference compound]
Colon Length (DSS-induced colitis): 75.2 ± 7.6 mm | Disease Activity Index (DSS-induced colitis): 5.6 ± 1.1 | Normalized Spleen Weight (DSS-induced colitis): 3.9 ± 0.7 mg/g BW | Colon Length [3]: 75.2 ± 7.6 mm | Normalized Spleen Weight [3]: 3.9 ± 0.7 mg/g BW | Disease Activity Index [3]: 5.6 ± 1.1

Share of total RvE1 detected in colon tissue contributed by the increase at the time of blood plasma Cmax ([5]; colon tissue, 15 minutes after oral dose): less than 2% | Timing of RvE1 Cmax ([5]; colon): 4 h | Cmax ([5]; colon tissue, Colon): 19.8 ng/mL | Tmax ([5]; colon tissue, Colon): 240 min | AUC(0-t) ([5]; colon tissue, Colon): 72.9 ng·h/mL | Cmax ([5]; plasma, Blood): 471 ng/mL | Tmax ([5]; plasma, Blood): 15 min | AUC(0-t) ([5]; plasma, Blood): 128 ng·h/mL | Cmax [5, 7]: 346 ng/mL | Tmax [5, 7]: 120 min | AUC(0-t) [5, 7]: 533 ng·h/mL | Timing of RvE1 Cmax ([5]; small intestine): 2 h | Cmax ([6]; blood, read-out: Blood Cmax of RvE1): 0.48 ng/mL | Tmax ([6]; blood): 15 min | Cmax ([6]; colon tissue, read-out: Colon Cmax of RvE1): 2800 ng/g | Tmax ([6]; colon): 15 min | Degradation products by HPLC (chemical stability) ([2]; 8 weeks, listed as RvE1 Mg di-lysinate): did not exhibit any degradation products
SMILES: CC[C@@H](O)/C=C/C=C\C[C@@H](O)/C=C/C=C/C=C\[C@@H](O)CCCC(=O)O [RvE1-Mg-Lys, bis(RvE1) magnesium L-lysinate salt]
Colon Length ([4]; Intracolonic): 83.1 ± 5.4 mm | Disease Activity Index ([4]; Intracolonic): 2.6 ± 1.9 | Normalized Spleen Weight ([4]; Intracolonic): 4.3 ± 0.9 mg/g BW | Total Histopath Score ([4]; Intracolonic): 15 ± 2.7 | Colon Length ([4]; Oral): 82.7 ± 5.6 mm | Disease Activity Index ([4]; Oral): 2.6 ± 1.8 | Normalized Spleen Weight ([4]; Oral): 4.4 ± 1.4 mg/g BW | Total Histopath Score ([4]; Oral): 15.9 ± 6.0 | Colon Length [1]: 77.3 ± 3 mm | Normalized Spleen Weight [1]: 6.6 ± 0.5 mg/g BW | Total Histopath Score [1]: 17.6 ± 2.7 | Disease Activity Index [1]: 3.7 ± 1.6 | Reduction in DAI relative to Disease Control (DSS-induced colitis; Day 21, P<0.01): 24% | Reduction in DAI relative to Disease Control (DSS-induced colitis; Day 23, P<0.05): 18% | Colon Length (DSS-induced colitis): 77.1 ± 7.8 mm | Disease Activity Index (DSS-induced colitis): 4.8 ± 1.3 | Normalized Spleen Weight (DSS-induced colitis): 3.6 ± 0.9 mg/g BW | Histopathologic disease activity vs Disease Control (in words) (DSS-induced colitis; at sacrifice Day 27, 15 ug/day oral): non-significant reduction | Colon length vs Disease Control (in words) (DSS-induced colitis; [8]): statistically significant increase | Normalized spleen weight vs Disease Control (in words) (DSS-induced colitis; [8]): statistically significant reduction | DAI relative to vehicle control (in words) (DSS-induced colitis; study day 27, 15 ug/day oral Day 20-27): statistically significant reduction | Colon Length [3]: 77.1 ± 7.8 mm | Normalized Spleen Weight [3]: 3.6 ± 0.9 mg/g BW | Disease Activity Index [3]: 4.8 ± 1.3
